Data: US9957253B2, “Triaminopyrimidine compounds useful for preventing or treating malaria” (MMV MEDICINES FOR MALARIA VENTURE, priority 2014, dated 2018)
Structures can show the parent of a compound that is named as a salt. Where two headings read alike, the source gives them in different places.

Columns and labels:
[1] = test system: chloroquine sensitive NF54 strain of P. falciparum; test: In vitro antiplasmodial activity (SYBR I), NF54 strain; format: cell-based, Plasmodium falciparum
Description: (§1) Measuring In Vitro Antiplasmodial Activity
(§2) The test samples were tested in duplicate on two separate occasions against chloroquine sensitive NF54 (MRA-1000, MR4, ATCC, Manassas, Va.) and chloroquine-resistant K1 strains of P. falciparum. A modified method of Trager and Jensen was employed to maintain continuous in vitro cultures of asexual blood stages of P. falciparum (Trageret al., 1976, Science, 193, 673-675). Quantitative assessment of antiplasmodial activity in vitro was determined using the SYBR I method as described earlier (Johnson et al., 2007, Antimicrob. Agents Chemother., 51, 1926-1933).
(§3) The percent inhibition with respect to the drug-free control was plotted against the logarithm of drug concentration. The growth inhibition curves were fitted by nonlinear regression using the sigmoidal dose-response (variable slope) formula to yield the concentration-response curves. […] Chloroquine diphosphate (CQ) (Sigma), artesunate (Sigma), and pyrimethamine were used as reference drugs in all experiments.

[2] = test system: chloroquine-resistant K1 strain of P. falciparum; test: In vitro antiplasmodial activity (SYBR I), K1 strain; format: cell-based, Plasmodium falciparum
Description: as §1, §2, §3

[3] = test system: P. falciparum field isolates; test: Ex vivo drug susceptibility (schizont maturation) of P. falciparum field isolates; format: cell-based; conditions: Plasmodium falciparum, read-out: P. falciparum IC50
Description: (§4) Further, compounds of the invention (Examples 2 and 13) were also tested against field isolates of falciparum and vivax malaria, along with three control antimalarials as described in the protocol below.
(§5) Ex Vivo Activity of Examples 2 and 13 Against Drug Resistant P. falciparum and P. Vivax Field Isolates
(§6) Standard antimalarial drugs chloroquine (CQ), amodiaquine (AQ), piperaquine (PIP), mefloquine (MFQ), and artesunate (AS) and compounds of the invention were prepared as 1 mg/mL stock solutions in H2O or dimethyl sulfoxide (DMSO) according to the manufacturers' instructions. Drug plates were pre-dosed by diluting the compounds in 50% Methanol followed by lyophilisation and stored at 4° C.
(§7) Plasmodium isolates were collected from patients attending malaria clinics in Timika (Papua, Indonesia), a region endemic for multi-drug-resistant strains of P. vivax and P. falciparum. Patients with symptomatic malaria presenting to an outpatient facility were recruited into the study if singly infected with P. falciparum or P. vivax, with a parasitaemia of between 2,000 μl-1 and 80,000 μl-1, and the majority (>80%) of parasites at ring stage of development. Venous blood (5 mL) was collected by venipuncture and after removal of host white blood cells by using cellulose (Sigma-Aldrich, Australia) filtration, packed infected red blood cells (iRBCs) were used for the ex vivo drug susceptibility assay.
(§8) Drug susceptibility of P. vivax and P. falciparum isolates was measured using a protocol modified from the WHO microtest as described previously (Marfurt et al., 2011, Antimicrob Agents Chemother., 55(9):4461). Two hundred μL of a 2% haematocrit Blood Media Mixture (BMM), consisting of RPMI 1640 medium plus 10% AB+ human serum (P. falciparum) or McCoy's 5 A medium plus 20% AB+ human serum (P. vivax), was added to each well of pre-dosed drug plates containing 11 serial concentrations (2-fold dilutions) of the antimalarials (maximum concentration shown in brackets) CQ (2,992 nM), AQ (158 nM), PIP (1,029 nM), MFQ (338 nM), AS (49 nM), and a compound of the invention (2,146 nM). A candle jar was used to mature the parasites at 37.0° C. for 35-56 hours.
(§9) Thick blood films made from each well were stained with 5% Giemsa solution for 30 minutes and examined microscopically. The number of schizonts per 200 asexual stage parasites was determined for each drug concentration and normalised to the control well. The dose-response data were analysed using nonlinear regression analysis (WinNonLn 4.1, Pharsight Corporation) and the IC50 value derived using an inhibitory sigmoid Emax model. […] Drug plate quality was assured by running schizont maturation assays (two independent experiments) with the chloroquine-resistant strain K1 and the chloroquine-sensitive strain FC27.
(§10) For microscopy slide reading QC, two randomly selected drugs per isolate were read by a second microscopist. […] If necessary, discrepant results were resolved by a third reading by an expert microscopist.

P. vivax field isolates = test: Ex vivo drug susceptibility (schizont maturation) of P. vivax field isolates; format: cell-based; conditions: Plasmodium vivax, read-out: P. vivax IC50
Description: as §4, §5, §6, §7, §8, §9, §10

[4] = Identification of metabolites of Example 13, rat liver microsomes or hepatocytes; format: in vitro ADME; conditions: metabolite of Example 13
Description: (§11) Identification of In Vivo Metabolites
(§12) Metabolites of Example 13 were identified both in vitro and in vivo using the following models: • In vitro: The compound of Example 13 was incubated with human (HLM) or rat (RLM) liver microsomes (1 mg/ml protein concentration in 100 mM phosphate buffer, pH 7.4) at a final concentration of 10 μM in the presence of 2 mM NADPH. The reactive intermediates were trapped by including 2 mM glutathione (GSH) or N-acetyl cysteine (NAC) in the reaction mix. • In vivo in bile duct cannulated rats: Example 13 was administered intravenously (IV) as a bolus through the jugular vein at a dose of 2 mg/kg or 4 mg/kg of body weight for control (n=3) or BDC rats (n=2), respectively. Blood samples were collected at 0.083, 0.25, 0.5, 1, 2, 4, 6, 8 and 24 h through the carotid artery, bile samples were collected at 0-2 h, 2-4 h, 4-6 h, 6-8 h and 8-24 h intervals and urine samples were collected at 0-8 h and 8-24 h intervals. The bile and urine samples were analyzed for the presence of parent and metabolites and blood samples were analyzed for the presence of parent.

[5] = Identification of metabolites of Example 13, human liver microsomes or hepatocytes; format: in vitro ADME; conditions: metabolite of Example 13
Description: as §11, §12

[6] = Identification of metabolites of Example 13, mouse liver microsomes or hepatocytes; format: in vitro ADME; conditions: metabolite of Example 13
Description: as §11, §12

[7] = Plasmodium falciparum, NF54, read-out: Pf IC50—NF54
[8] = Plasmodium falciparum, K1, read-out: Pf IC50—K1
[9] = Plasmodium falciparum, NF54 strain, chloroquine sensitive, read-out: Pf IC50—NF54
[10] = Plasmodium falciparum, K1 strain, chloroquine-resistant, read-out: Pf IC50—K1

CCc1cc(Nc2ncc(N3CCNC(C)C3)c(Nc3cc(C)n(C)n3)n2)nc(C)c1F (stereo in doubt) [Example 8, (R)—N4-(1,5-dimethyl-1H-pyrazol-3-yl)-N2-(4-ethyl-5-fluoro-6-methylpyridin-2-yl)-5-(3-methylpiperazin-1-yl)pyrimidine-2,4-diamine dihydrochloride]
IC50 [1, 7]: 0.035 µM | IC50 [2, 8]: 0.044 µM

C[C@H]1[C@H](OC(=O)CCC(=O)O)O[C@@H]2O[C@@]3(C)CC[C@H]4[C@H](C)CC[C@@H]1[C@@]24OO3 [Artesunate, artesunate]
IC50 [3]: 0.0151 µM | IC50 (P. vivax field isolates): 0.00479 µM

CCN(CC)CCCC(C)Nc1ccnc2cc(Cl)ccc12 (stereo not drawn) [Chloroquine, chloroquine, reference compound]
IC50 [3]: 0.0608 µM | IC50 (P. vivax field isolates): 0.0402 µM | IC50 [1, 7]: 0.011 µM | IC50 [2, 8]: > 0.15 µM

Cc1nc(Nc2ncc(N3CCN(C)CC3)c(Nc3cn(C)nn3)n2)cc(C2CC2)c1F [Example 1, N2-(4-cyclopropyl-5-fluoro-6-methylpyridin-2-yl)-N4-(1-methyl-1H-1,2,3-triazol-4-yl)-5-(4-methylpiperazin-1-yl)pyrimidine-2,4-diamine]
IC50 [1, 9]: 0.015 µM | IC50 [2, 10]: 0.024 µM

Cc1nc(Nc2ncc(N3CCN[C@H](C)C3)c(Nc3cc(C)n(C)n3)n2)cc(C2CC2)c1F [Example 2, (R)—N2-(4-cyclopropyl-5-fluoro-6-methylpyridin-2-yl)-N4-(1,5-dimethyl-1H-pyrazol-3-yl)-5-(3-methylpiperazin-1-yl)pyrimidine-2,4-diamine dihydrochloride]
IC50 [3]: 0.0636 µM | IC50 (P. vivax field isolates): 0.081 µM | IC50 [1, 7]: 0.014 µM | IC50 [2, 8]: 0.019 µM | Presence of proposed metabolite (N-demethylation) in liver microsomes or hepatocytes [4]: ✓ | Presence of proposed metabolite (N-demethylation) in liver microsomes or hepatocytes [5]: ✓ | Presence of proposed metabolite (N-demethylation) in liver microsomes or hepatocytes [6]: ✓

CCn1nc(Nc2nc(Nc3cc(C4CC4)c(F)c(C)n3)ncc2N2CCN[C@H](C)C2)cc1C [Example 3, (R)—N2-(4-cyclopropyl-5-fluoro-6-methylpyridin-2-yl)-N4-(1-ethyl-5-methyl-1H-pyrazol-3-yl)-5-(3-methylpiperazin-1-yl)pyrimidine-2,4-diamine dihydrochloride]
IC50 [1, 7]: 0.017 µM | IC50 [2, 8]: 0.014 µM

Cc1nc(Nc2ncc(N3CCN[C@H](C)C3)c(Nc3cn(C)nn3)n2)cc(C2CC2)c1F [Example 4, (R)—N2-(4-cyclopropyl-5-fluoro-6-methylpyridin-2-yl)-N4-(1-methyl-1H-1,2,3-triazol-4-yl)-5-(3-methylpiperazin-1-yl)pyrimidine-2,4-diamine dihydrochloride]
IC50 [1, 7]: 0.033 µM | IC50 [2, 8]: 0.051 µM

Cc1nc(Nc2ncc(N3CCN[C@H](C)C3)c(Nc3cc(C)n(C)n3)n2)cc(C2CC2)c1Cl [Example 5, (R)—N2-(5-chloro-4-cyclopropyl-6-methylpyridin-2-yl)-N4-(1,5-dimethyl-1H-pyrazol-3-yl)-5-(3-methylpiperazin-1-yl)pyrimidine-2,4-diamine dihydrochloride]
IC50 [1, 7]: 0.023 µM | IC50 [2, 8]: 0.048 µM

Cc1nc(Nc2ncc(N3CCN[C@H](C)C3)c(Nc3cc(C)n(C)n3)n2)cc(C2CC2)c1C#N [Example 6, (R)-4-cyclopropyl-6-((4-((1,5-dimethyl-1H-pyrazol-3-yl)amino)-5-(3-methylpiperazin-1-yl)pyrimidin-2-yl)amino)-2-methylnicotinonitrile dihydrochloride]
IC50 [1, 7]: 0.031 µM | IC50 [2, 8]: 0.045 µM

Cc1nc(Nc2ncc(N3CCN[C@H](C)C3)c(Nc3cc(C)n(C)n3)n2)cc(C2CCC2)c1F [Example 9, (R)—N2-(4-cyclobutyl-5-fluoro-6-methylpyridin-2-yl)-N4-(1,5-dimethyl-1H-pyrazol-3-yl)-5-(3-methylpiperazin-1-yl)pyrimidine-2,4-diamine dihydrochloride]
IC50 [1, 7]: 0.025 µM | IC50 [2, 8]: 0.048 µM

Cc1nc(Nc2ncc(N3CCN[C@H](C)C3)c(Nc3cn(C)nn3)n2)cc(C2CC2)c1Cl [Example 11, (R)—N2-(5-chloro-4-cyclopropyl-6-methylpyridin-2-yl)-N4-(1-methyl-1H-1,2,3-triazol-4-yl)-5-(3-methylpiperazin-1-yl)pyrimidine-2,4-diamine dihydrochloride]
IC50 [1, 7]: 0.03 µM | IC50 [2, 8]: 0.05 µM

Cc1nc(Nc2ncc(N3CCN(C)[C@H](C)C3)c(Nc3cn(C)nn3)n2)cc(C2CC2)c1F [Example 14, (R)—N2-(4-cyclopropyl-5-fluoro-6-methylpyridin-2-yl)-5-(3,4-dimethylpiperazin-1-yl)-N4-(1-methyl-1H-1,2,3-triazol-4-yl)pyrimidine-2,4-diamine]
IC50 [1, 9]: 0.033 µM | IC50 [2, 10]: 0.069 µM

Cc1nc(Nc2ncc(N3CCN(C)[C@H](C)C3)c(Nc3cnn(C)n3)n2)cc(C2CC2)c1F [Example 15, (R)—N2-(4-cyclopropyl-5-fluoro-6-methylpyridin-2-yl)-5-(3,4-dimethylpiperazin-1-yl)-N4-(2-methyl-2H-1,2,3-triazol-4-yl)pyrimidine-2,4-diamine]
IC50 [1, 9]: 0.017 µM | IC50 [2, 10]: 0.037 µM

Clc1ccc2c(N3CCN(CCCN4CCN(c5ccnc6cc(Cl)ccc56)CC4)CC3)ccnc2c1 [Piperaquine, piperaquine]
IC50 [3]: 0.0169 µM | IC50 (P. vivax field isolates): 0.0059 µM

CCc1nc(N)nc(N)c1-c1ccc(Cl)cc1 [Pyrimethamine, pyrimethamine, reference compound]
IC50 [1, 9]: 0.064 µM | IC50 [2, 10]: 7.9 µM

(R)—N2-(5-Fluoro-4-cyclopropyl-6-methylpyridin-2-yl)-N4-(2-methyl-2H-1,2,3-triazol-4-yl)-5-(3-methylpiperazin-1-yl)pyrimidine-2,4-diamine dihydochloride [Example 12]
IC50 ([1]; NF54 strain, chloroquine sensitive, read-out: Pf IC50—NF54): 0.039 µM | IC50 ([2]; K1 strain, chloroquine-resistant, read-out: Pf IC50—K1): 0.082 µM
